Data: US20090042835A1, “COMPOSITIONS AND METHODS FOR AMELIORATING HYPERLIPIDEMIA” (priority 2006, published 2009)
One block for each molecule: values may come before it.

Columns and labels:
L-FABP [1] = target: T1, L-FABP (Homo sapiens, UniProt P07148); assay: 1,8-ANS binding to FABP (direct binding isotherms)
T1 sequence (P07148 1-127): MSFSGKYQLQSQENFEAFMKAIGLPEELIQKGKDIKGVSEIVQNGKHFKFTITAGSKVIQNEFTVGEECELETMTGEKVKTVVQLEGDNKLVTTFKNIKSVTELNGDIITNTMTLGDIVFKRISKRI
Text: The pharmaceutical compound may be formulated using any small molecule that is capable of inhibiting L-FABP and which is pharmaceutically acceptable. One non-limiting example of a suitable L-FABP inhibitor is 3-(decyldimethylsilyl)-N-[2-(4-methylphenyl)-1-phenylethyl]propanamide (Sandoz compound 58-035) (lot #fr. 09061988), In some embodiments, such L-FABP inhibitors are identified using a screening assay. […] Suitable in vitro assays for testing L-FABP include, but are not limited to a high throughput L-FABP assay based on the 1,8-ANS binding assay (see: Kane, C. D., and Bernlohr, D. A. 1996, A simple assay for intracellular lipid-binding proteins using displacement of 1-anilinonaphthalene 8-sulfonic acid. Anal Biochem 233:197-204.) In this assay, recombinant L-FABP is incubated with a fluorescent surrogate ligand, 1-anilinonapthalene 8-sulfonic acid (ANS) and allowed to come to equilibrium. 1,8-ANS is non-fluorescent in solution but is highly fluorescent when bound in the hydrophobic, lipid-binding pocket of the fatty acid binding proteins. […] Chemical compounds in pools of 5 were added to each well and the fluorescence re-measured. […] In tertiary screens, the primary targets will be titrated into the FABP bound with 1,8-ANS and the displacement quantitated as a function of ligand concentration.

control mice = assay: PPARα agonist GW-7647 feeding, hepatic mRNA, control mice; format: in vivo; details: 2.5 mg/kg/d in chow, 7 weeks
Description: (§1) Animal Studies. Male PPARα−/− mice and age matched WT littermates (on SV/129 background) were fed a standard chow diet, supplemented with either the PPARα agonist GW-7647 (2.5 mg/kg/d) or equivalent amount of solvent vehicle (DMSO), for 7 weeks. All animals had ad libitum access to water. Mice were weighed every 2 weeks and drug intake was adjusted according to mean weight. Upon end of treatment animals were sacrificed, liver was isolated, and total RNA was extracted using Versagene RNA Tissue Kit (Gentra Systems, Inc.). First-Strand cDNA synthesis and Real Time PCR expression analyses were performed as described above.

PPARα−/− mice = assay: PPARα agonist GW-7647 feeding, hepatic mRNA, PPARα−/− mice; format: in vivo; details: 2.5 mg/kg/d in chow, 7 weeks
Description: as §1

L-FABP [2] = target: T1, L-FABP; details: cited from earlier work
PPARα = target: T2, PPARα (rat, UniProt P37230 1-468); assay: inferred from EMSA supershift of the same FAO-specific DNA-protein complex with anti-RXRα and anti-PPARα antibodies
T2 construct: Nuclear receptor; It was present in a crude nuclear extract, not purified; also called PPAR alpha
T2 sequence (looked up): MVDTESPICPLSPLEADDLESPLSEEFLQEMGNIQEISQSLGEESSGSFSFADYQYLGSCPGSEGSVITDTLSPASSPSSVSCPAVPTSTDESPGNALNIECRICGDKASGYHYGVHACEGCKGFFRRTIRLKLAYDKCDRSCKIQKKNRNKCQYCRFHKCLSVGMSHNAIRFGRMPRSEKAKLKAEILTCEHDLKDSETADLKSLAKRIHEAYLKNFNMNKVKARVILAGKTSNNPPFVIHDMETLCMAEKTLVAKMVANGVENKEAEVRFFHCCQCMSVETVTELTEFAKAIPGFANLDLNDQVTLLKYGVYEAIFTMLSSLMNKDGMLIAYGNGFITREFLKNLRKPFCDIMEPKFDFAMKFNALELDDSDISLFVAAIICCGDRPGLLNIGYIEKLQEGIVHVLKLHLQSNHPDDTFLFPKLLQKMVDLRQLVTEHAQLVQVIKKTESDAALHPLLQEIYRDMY
Description: The probes were prepared by annealing the complementary oligonucleotides and by end labeling with [γ-³²P]ATP ([…]), PerkinElmer Life Sciences) using T4 polynucleotide kinase (New England Biolabs), followed by purification on a G50 column. For binding reactions, 15 μg of nuclear extracts were incubated with 3×10^4 cpm probe on ice for 20 min in a total volume of 15 μl of solution (20 mM HEPES, pH7.9 at 4° C., 10% glycerol, 100 mM KCl, 1 mM EDTA, and 2 μg poly(dI-dC). For supershift experiments, 1 μl of specific antibodies were added to preincubated DNA-protein complexes for an additional 20 min on ice. Antibodies against COUP-TFII (sc-6576X), RXRα (sc-553X), and PPARα (sc-9000X) were obtained from Santa Cruz Biotechnology, Inc. DNA-protein complexes were resolved on 4% native polyacrylamide gel electrophoresis containing 0.5×TBE buffer.
PPARα-RXRα heterodimers compete with COUP-TFII for binding to the DR1 promoter elements of both the MTP and L-FABP genes. […] In contrast, PPARα-RXRα supershifts were not detected with the nuclear extracts obtained from L35 cells ((4)). These Findings indicate that in FAO cells, the DR1 sites of both the L-FABP and MTP promoters are occupied by PPARα-RXRα heterodimers while these same sites are occupied by a COUP-TFII complex in L35 cells.

- Kd (L-FABP [1]): 1500 nM
Molecule: O=S(=O)(O)c1cccc2cccc(Nc3ccccc3)c12 [1,8-ANS, 1-anilinonapthalene 8-sulfonic acid]

Molecule: CC(C)(Sc1ccc(CCN(CCCCC2CCCCC2)C(=O)NC2CCCCC2)cc1)C(=O)O [GW-7647]
- hepatic L-FABP mRNA level (control mice): increased levels
- hepatic MTP mRNA level (control mice): increased levels
- hepatic L-FABP expression level (PPARα−/− mice): no significant changes
- hepatic MTP expression level (PPARα−/− mice): no significant changes

Molecule: CCCCCCCCCC[Si](C)(C)CCC(=O)NC(Cc1ccc(C)cc1)c1ccccc1 (stereo not shown) [Sandoz compound 58-035, 3-(decyldimethylsilyl)-N-[2-(4-methylphenyl)-1-phenylethyl]propanamide]
- inhibition of L-FABP (L-FABP [2]): inhibit L-FABP

- binding result (PPARα): binds
B1: RXRα (receptor, rat, UniProt Q05343 1-467, looked up)
chain: MDTKHFLPLDFSTQVNSSSLSSPTGRGSMAAPSLHPSLGPGLGSPLGSPGQLHSPISTLSSPINGMGPPFSVISSPMGPHSMSVPTTPTLGFETGSPQLNSPMNPVSSSEDIKPPLGLNGVLKVPAHPSGNMSSFTKHICAICGDRSSGKHYGVYSCEGCKGFFKRTVRKDLTYTCRDNKDCLIDKRQRNRCQYCRYQKCLAMGMKREAVQEERQRGKDRNENEVESTSSANEDMPVEKILEAELAVEPKTETYVEANMGLNPSSPNDPVTNICQAADKQLFTLVEWAKRIPHFSELPLDDQVILLRAGWNELLIASFSHRSIAVKDGILLATGLHVHRNSAHSAGVGAIFDRVLTELVSKMRDMQMDKTELGCLRAIVLFNPDSKGLSNPAEVEALREKVYASLEAYCKHKYPEQPGRFAKLLLRLPALRSIGLKCLEHLFFFKLIGDTPIDTFLMEMLEAPHQTT
notes: Nuclear receptor; It was present in a crude nuclear extract, not purified; also called RXR alpha
